According to article PMC8413904 (Pharmacology Research & Perspectives, 2021):

Assays:
[1] = target: GluN1/2A/2B triheteromeric (1/2AB) receptors (Rattus norvegicus, UniProt P35439+Q00959+Q01097); assay: TEVC electrophysiology dose–response in xenopus oocytes; conditions: 100 µM CNS4, −60 mV, average ± SEM
Text: (§1) NMDAR constructs: cDNA encoding the NMDAR1a subunit (GluN1a) was obtained from Dr. Nakanishi. cDNA encoding the GluN2B (pci_sepGluN2B) was developed initially in the Malinow lab[36] and purchased from Addgene (cat# 23998). cDNA encoding the GluN2C and GluN2D were purchased from GenScript. Mutated GluN1, 2A and 2B cDNA constructs capable of assembling as GluN1/2A/2B triheteromeric (1/2AB) receptors[37] were obtained from Dr. Paoletti (Laboratoire de Neurobiologie, CNRS). […] Plasmids were linearized with NotI (GluN1a) or Avrll (GluN2B), or BstB1 (GluN2C and GluN2D) and transcribed in vitro with T7 (GluN1a, GluN1/2A, GluN2B, GluN2C, & GluN2D) RNA polymerase using the mMessage mMachine transcription kits (Invitrogen by Thermo Fisher Scientific).
(§2) Stage IV frog oocytes were obtained from Xenopus‐I. NMDAR subunit cRNAs were suspended in nuclease‐free sterile water. GluN1A, GluN2B, GluN2C, GluN2D, and GluN1/2A/2B cRNAs were mixed in a ratio of 1:1–3. 50 nl of the final cRNA mixture was microinjected (40–70 ng total) into the oocyte cytoplasm. Oocytes were incubated in ND‐96 solution at 18^◦C prior to electrophysiological recordings (1–3 days).
Electrophysiological responses were measured using a standard two‐microelectrode voltage‐clamp workstation [Warner Instruments (Hamden, Connecticut) model OC‐725C] designed to provide a fast clamp of large cells. The recording buffer contained 116 mM NaCl, 2 mM KCl, 0.3 mM BaCl2, and 5 mM HEPES, pH 7.4. Response magnitude was determined in xenopus oocytes expressing different NMDAR subunits (GluN1/2A, 1/2B, 1/2C, 1/2D, and 1/2A/2B) by the steady plateau response elicited by bath application of different agonist concentrations. […] Response amplitudes for functional NMDARs were generally between 0.1 and 2 μA. […] Dose–response relationships were fit to an appropriate curve‐fitting equation using GraphPad Prism‐7. Nonlinear regression was used to calculate EC50 and/or percentage maximal response. […] Statistical significance was determined at the overall alpha level .05, using appropriate statistical methods as described in each figure captions.

GluN1/2B = GluN1/2B (Rattus norvegicus, UniProt P35439+Q00960); assay: Current–voltage (I–V) relationship, TEVC in xenopus oocytes
Method: (§3) GluN1A, GluN2B, GluN2C, GluN2D, and GluN1/2A/2B cRNAs were mixed in a ratio of 1:1–3. 50 nl of the final cRNA mixture was microinjected (40–70 ng total) into the oocyte cytoplasm. Oocytes were incubated in ND‐96 solution at 18^◦C prior to electrophysiological recordings (1–3 days).
(§4) After obtaining a steady‐state response to different agonist applications, agonist plus 100 μM CNS4 or agonist plus 40 μM MgCl2 plus 100 μM CNS4 was applied. […] Data points were aligned by least‐square fit by third‐order polynomial equation (Y = B0 + B1*X +B2*X ^2 + B3*X ^3), except for GluN1/2B that needed a fourth‐order polynomial equation.

[2] = tested on: cultured rat brain cortical neurons; assay: Na^+ assay (CoroNa green‐AM); format: cell-based
Method: All animal experimental procedures and housing have been approved by the Institutional Animal Care and Use Committee (IACUC) protocol #18‐015 of Virginia Tech. Embryonic day 18 (E18) rat brain tissue samples were obtained from adult pregnant SD rats. Rat brain primary cortical, striatal, and cerebellar neurons were cultured on poly‐d‐lysine coated 96‐well plates for 14 days in vitro (DIV14) before using for the experiments. Primary rat neuron culture was performed as previously published.[44] Briefly, each well of a 96 well plate was loaded with 50 000 cells and grown in 200 µl neurobasal media supplemented with B27, glutamax, penicillin, streptomycin. One hundred microliters of media was replaced with fresh media once in 4 days. Eight to thirteen fetus were obtained from each pregnant rat. Brain tissue from these fetus were pooled to obtain the neurons. Cortical, striatal, and cerebellar neuron assays were carried out at different time points.
For Na^+ assay, DIV14 neurons were washed with HBSS and treated with freshly prepared CoroNa green‐AM dye (ThermoFisher, cat # C36676) and incubated for 45 min in 37°C. […] RFU values of background control and treatments were plotted to identify the effect of CNS4 on NMDA‐induced Na^+ flux in the neurons.

GluN1/2A = GluN1/2A (UniProt P35439+Q12879); assay: TEVC electrophysiology dose–response in xenopus oocytes; format: cell-based; conditions: 100 µM CNS4, −60 mV, average ± SEM
Text: as §1, §2
Electrophysiological responses were measured using a standard two‐microelectrode voltage‐clamp workstation [Warner Instruments (Hamden, Connecticut) model OC‐725C] designed to provide a fast clamp of large cells. The recording buffer contained 116 mM NaCl, 2 mM KCl, 0.3 mM BaCl2, and 5 mM HEPES, pH 7.4. Response magnitude was determined in xenopus oocytes expressing different NMDAR subunits (GluN1/2A, 1/2B, 1/2C, 1/2D, and 1/2A/2B) by the steady plateau response elicited by bath application of different agonist concentrations. […] Response amplitudes for functional NMDARs were generally between 0.1 and 2 μA. […] Dose–response relationships were fit to an appropriate curve‐fitting equation using GraphPad Prism‐7. Nonlinear regression was used to calculate EC50 and/or percentage maximal response. Curve fittings were done using the following equations as performed in the previous studies[34], [39]: Y = 100/(1 + 10^(LogEC50‐X)) or Y = Bottom + (Top − Bottom)/(1+10^(LogEC50‐X)). Statistical significance was determined at the overall alpha level .05, using appropriate statistical methods as described in each figure captions.

GluN1/2C [3] = target: T1, GluN1/2C (UniProt P35439+Q14957); assay: as above; format: cell-based; set-up: host or cells: Xenopus oocytes (cRNA injection)
Text: NMDAR constructs: cDNA encoding the NMDAR1a subunit (GluN1a) was obtained from Dr. Nakanishi. cDNA encoding the GluN2B (pci_sepGluN2B) was developed initially in the Malinow lab[36] and purchased from Addgene (cat# 23998). cDNA encoding the GluN2C and GluN2D were purchased from GenScript. Mutated GluN1, 2A and 2B cDNA constructs capable of assembling as GluN1/2A/2B triheteromeric (1/2AB) receptors[37] were obtained from Dr. Paoletti (Laboratoire de Neurobiologie, CNRS). […] Plasmids were linearized with NotI (GluN1a) or Avrll (GluN2B), or BstB1 (GluN2C and GluN2D) and transcribed in vitro with T7 (GluN1a, GluN1/2A, GluN2B, GluN2C, & GluN2D) RNA polymerase using the mMessage mMachine transcription kits (Invitrogen by Thermo Fisher Scientific). […]
Electrophysiological responses were measured using a standard two‐microelectrode voltage‐clamp workstation [Warner Instruments (Hamden, Connecticut) model OC‐725C] designed to provide a fast clamp of large cells. […] Response magnitude was determined in xenopus oocytes expressing different NMDAR subunits (GluN1/2A, 1/2B, 1/2C, 1/2D, and 1/2A/2B) by the steady plateau response elicited by bath application of different agonist concentrations. […] Statistical significance was determined at the overall alpha level .05, using appropriate statistical methods as described in each figure captions.

GluN1/2C [4] = target: T1, GluN1/2C; assay: Current–voltage (I–V) relationship, TEVC in xenopus oocytes
Method: as §3, §4

[5] = 0.3 µM glutamate + 100 µM glycine
[6] = 100 µM glutamate + 100 µM glycine
[7] = 300 µM glutamate + 100 µM glycine
[8] = 100 µM CNS4, 100 µM glutamate + 100 µM glycine, −90 to +30 mv

GluN1/2A/2B triheteromeric (1/2AB) receptors, sequence (Q01097 27-1482, other chains not shown): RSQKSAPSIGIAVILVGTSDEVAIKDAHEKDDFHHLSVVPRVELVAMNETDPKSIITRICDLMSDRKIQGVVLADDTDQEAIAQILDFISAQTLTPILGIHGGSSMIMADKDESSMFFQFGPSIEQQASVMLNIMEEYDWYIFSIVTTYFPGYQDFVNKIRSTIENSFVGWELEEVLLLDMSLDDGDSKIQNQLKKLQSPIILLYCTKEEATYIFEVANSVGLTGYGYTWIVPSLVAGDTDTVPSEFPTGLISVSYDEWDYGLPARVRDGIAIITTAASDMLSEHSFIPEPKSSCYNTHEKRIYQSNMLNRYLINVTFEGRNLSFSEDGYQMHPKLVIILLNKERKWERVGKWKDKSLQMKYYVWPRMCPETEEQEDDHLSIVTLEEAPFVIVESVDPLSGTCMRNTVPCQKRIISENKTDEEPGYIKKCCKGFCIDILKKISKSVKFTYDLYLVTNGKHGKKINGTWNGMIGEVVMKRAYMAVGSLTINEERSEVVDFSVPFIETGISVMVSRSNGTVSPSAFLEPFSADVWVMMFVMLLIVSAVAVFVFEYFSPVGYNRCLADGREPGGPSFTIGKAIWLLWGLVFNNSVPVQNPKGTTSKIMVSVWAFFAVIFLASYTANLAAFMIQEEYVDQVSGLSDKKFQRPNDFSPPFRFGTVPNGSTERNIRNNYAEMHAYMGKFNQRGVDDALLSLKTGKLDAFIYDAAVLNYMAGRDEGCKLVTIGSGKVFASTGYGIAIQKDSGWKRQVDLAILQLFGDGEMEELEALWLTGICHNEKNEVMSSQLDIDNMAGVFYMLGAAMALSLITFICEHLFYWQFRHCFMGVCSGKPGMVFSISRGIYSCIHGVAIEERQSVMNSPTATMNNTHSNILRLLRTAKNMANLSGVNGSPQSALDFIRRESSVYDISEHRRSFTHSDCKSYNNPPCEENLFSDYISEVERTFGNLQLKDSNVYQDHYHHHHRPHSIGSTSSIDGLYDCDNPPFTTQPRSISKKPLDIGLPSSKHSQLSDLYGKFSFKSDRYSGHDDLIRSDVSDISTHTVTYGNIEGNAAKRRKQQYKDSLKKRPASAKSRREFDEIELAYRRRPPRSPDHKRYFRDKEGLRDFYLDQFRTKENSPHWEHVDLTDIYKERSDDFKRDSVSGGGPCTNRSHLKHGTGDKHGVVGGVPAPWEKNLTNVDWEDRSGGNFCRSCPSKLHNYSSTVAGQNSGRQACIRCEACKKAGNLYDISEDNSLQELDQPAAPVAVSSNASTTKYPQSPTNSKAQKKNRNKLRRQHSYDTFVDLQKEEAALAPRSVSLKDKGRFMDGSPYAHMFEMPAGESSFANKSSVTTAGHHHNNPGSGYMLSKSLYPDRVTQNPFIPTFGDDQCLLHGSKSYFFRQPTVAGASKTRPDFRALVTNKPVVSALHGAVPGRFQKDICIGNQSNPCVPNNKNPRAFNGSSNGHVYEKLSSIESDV
GluN1/2A/2B triheteromeric (1/2AB) receptors, sequence (Q00959 23-1464, other chains not shown): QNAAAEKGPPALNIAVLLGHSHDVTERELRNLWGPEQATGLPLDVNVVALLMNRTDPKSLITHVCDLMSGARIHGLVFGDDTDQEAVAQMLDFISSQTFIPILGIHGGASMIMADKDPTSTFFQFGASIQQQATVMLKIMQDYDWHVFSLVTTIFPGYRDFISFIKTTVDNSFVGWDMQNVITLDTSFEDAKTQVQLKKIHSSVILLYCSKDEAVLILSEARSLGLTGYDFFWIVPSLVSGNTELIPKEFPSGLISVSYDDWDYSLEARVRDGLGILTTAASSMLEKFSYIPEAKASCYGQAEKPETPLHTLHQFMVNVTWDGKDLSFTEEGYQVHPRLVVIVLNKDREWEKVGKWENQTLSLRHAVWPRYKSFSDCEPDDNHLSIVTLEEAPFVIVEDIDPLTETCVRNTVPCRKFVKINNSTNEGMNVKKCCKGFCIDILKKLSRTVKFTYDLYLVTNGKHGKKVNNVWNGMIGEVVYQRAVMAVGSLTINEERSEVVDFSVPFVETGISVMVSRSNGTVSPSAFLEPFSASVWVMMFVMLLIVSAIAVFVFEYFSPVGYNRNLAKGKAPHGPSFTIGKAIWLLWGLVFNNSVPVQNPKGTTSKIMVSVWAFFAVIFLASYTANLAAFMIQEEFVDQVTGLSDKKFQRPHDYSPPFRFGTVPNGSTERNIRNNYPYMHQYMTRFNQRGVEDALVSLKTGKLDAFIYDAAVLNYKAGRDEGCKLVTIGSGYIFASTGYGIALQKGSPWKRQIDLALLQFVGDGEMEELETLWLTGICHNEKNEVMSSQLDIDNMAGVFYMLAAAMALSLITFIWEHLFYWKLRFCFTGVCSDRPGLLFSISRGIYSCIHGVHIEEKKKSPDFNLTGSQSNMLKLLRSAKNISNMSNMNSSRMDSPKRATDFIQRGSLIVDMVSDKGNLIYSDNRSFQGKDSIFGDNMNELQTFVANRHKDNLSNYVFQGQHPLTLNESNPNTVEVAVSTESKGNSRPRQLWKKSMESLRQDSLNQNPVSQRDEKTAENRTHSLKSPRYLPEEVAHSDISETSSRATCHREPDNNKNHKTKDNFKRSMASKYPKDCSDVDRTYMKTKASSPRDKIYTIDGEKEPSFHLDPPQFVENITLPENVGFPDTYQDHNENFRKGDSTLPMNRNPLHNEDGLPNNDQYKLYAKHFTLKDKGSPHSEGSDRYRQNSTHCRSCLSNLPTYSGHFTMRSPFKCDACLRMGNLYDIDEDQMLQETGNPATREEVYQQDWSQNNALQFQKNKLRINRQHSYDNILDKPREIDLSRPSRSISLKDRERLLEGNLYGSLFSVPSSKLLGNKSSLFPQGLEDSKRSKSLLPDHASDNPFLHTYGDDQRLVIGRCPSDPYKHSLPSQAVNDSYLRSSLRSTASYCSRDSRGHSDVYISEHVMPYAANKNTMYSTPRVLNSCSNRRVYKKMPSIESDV
T1 sequence (Q14957 20-1233, other chains not shown): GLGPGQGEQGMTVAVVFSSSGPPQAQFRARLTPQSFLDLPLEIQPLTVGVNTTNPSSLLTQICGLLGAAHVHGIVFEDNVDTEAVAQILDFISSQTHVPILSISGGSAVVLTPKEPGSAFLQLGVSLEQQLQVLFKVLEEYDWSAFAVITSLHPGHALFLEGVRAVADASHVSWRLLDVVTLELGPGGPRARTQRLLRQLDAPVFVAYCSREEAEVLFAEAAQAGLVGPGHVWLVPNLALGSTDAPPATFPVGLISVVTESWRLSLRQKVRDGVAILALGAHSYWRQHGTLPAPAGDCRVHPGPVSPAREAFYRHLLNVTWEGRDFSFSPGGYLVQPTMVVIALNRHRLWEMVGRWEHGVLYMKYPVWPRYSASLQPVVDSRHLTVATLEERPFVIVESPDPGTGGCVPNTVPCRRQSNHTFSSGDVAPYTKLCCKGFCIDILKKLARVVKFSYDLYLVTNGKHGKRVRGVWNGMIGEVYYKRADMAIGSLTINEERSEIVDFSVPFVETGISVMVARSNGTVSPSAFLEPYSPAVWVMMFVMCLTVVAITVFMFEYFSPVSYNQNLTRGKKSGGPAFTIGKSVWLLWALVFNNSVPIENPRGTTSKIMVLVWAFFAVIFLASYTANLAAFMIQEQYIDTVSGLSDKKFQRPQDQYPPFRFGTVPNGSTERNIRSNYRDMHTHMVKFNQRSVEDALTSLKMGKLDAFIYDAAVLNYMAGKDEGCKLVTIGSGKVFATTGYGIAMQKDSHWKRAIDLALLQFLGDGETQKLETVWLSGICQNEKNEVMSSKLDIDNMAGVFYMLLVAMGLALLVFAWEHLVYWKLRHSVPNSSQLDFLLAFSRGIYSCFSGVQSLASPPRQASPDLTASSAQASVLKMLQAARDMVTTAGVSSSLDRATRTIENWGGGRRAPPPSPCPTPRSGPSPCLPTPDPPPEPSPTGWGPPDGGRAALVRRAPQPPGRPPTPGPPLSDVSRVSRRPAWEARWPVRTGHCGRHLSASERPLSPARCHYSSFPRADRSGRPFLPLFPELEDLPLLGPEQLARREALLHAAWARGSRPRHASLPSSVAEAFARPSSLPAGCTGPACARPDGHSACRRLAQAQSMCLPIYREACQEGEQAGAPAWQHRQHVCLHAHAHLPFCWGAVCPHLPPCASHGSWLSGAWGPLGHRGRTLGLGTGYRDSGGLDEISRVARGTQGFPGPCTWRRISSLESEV

O=C(NC(=S)N1CCCCC1c1cccnc1)c1ccc(F)cc1 (stereo not drawn) [CNS4, 4‐fluoro‐N‐(2‐(pyridin‐3‐yl)piperidine‐1‐carbonothioyl)benzamide]
current response, agonist alone induced maximum current normalized to 100% [1, 5]: 264.37% ± 16.9%
current response, agonist alone induced maximum current normalized to 100% [1, 6]: 122.65% ± 1.9%
current response, agonist alone induced maximum current normalized to 100% [1, 7]: 144.47% ± 11.8%
voltage dependence of effect on current amplitude (GluN1/2B; [8]): no voltage dependence effect
reversal potential (GluN1/2B; agonist (100 µM glutamate + 100 µM glycine) + 40 µM MgCl2 + 100 µM CNS4, without CNS4 −11.66 ± 1.25, p > .05): −6.9 ± 0.74 mv
reversal potential (GluN1/2B; agonist (100 µM glutamate + 100 µM glycine) + 100 µM CNS4, absence of Mg^2+, agonist alone −11.66 ± 1.55, p > .05): −10.89 ± 1.9 mv
Na^+ signal, mean rfu ([2]; 100 µM CNS4 + 0.3 µM NMDA, p < .0001 vs CNS4 with no NMDA (412544)): 391591 rfu
Na^+ signal compared to 300 µM NMDA alone ([2]; 100 µM CNS4 + 30–300 µM NMDA): significantly higher Na^+ signal
Na^+ signal, mean rfu ([2]; 100 µM CNS4 + glutamate + MK801, p = .0024 vs glutamate + MK801 ([…])): 519331 rfu
Na^+ signal, mean rfu ([2]; 100 µM CNS4 alone, Figure 8B): 538755 rfu
Na^+ signal, mean rfu ([2]; 100 µM CNS4 with no NMDA, Figure 7A): 412544 rfu
current response, agonist alone induced maximum current normalized to 100% (GluN1/2A; [5]): negligible effect
current response, agonist alone induced maximum current normalized to 100% (GluN1/2A; [6]): 186.08% ± 23.5%
current response, agonist alone induced maximum current normalized to 100% (GluN1/2A; [7]): 122.87% ± 9.9%
current response, agonist alone induced maximum current normalized to 100% (GluN1/2C [3]; 100 µM CNS4, 0.3 µM glutamate + 100 µM glycine, −60 mV, average ± SEM): 506.34% ± 52.9%
potentiation of receptor current (GluN1/2C [3]; higher concentration (100 & 300 µM) of glutamate, almost no effect): < 20%
inward current reversal potential (GluN1/2C [4]; 0.3 µM glutamate + 100 µM glycine + CNS4, absence of Mg2+, without CNS4 -86.44± 0.74, p<0.0001, n=7): -75.15±1.33 mv
inward current reversal potential (GluN1/2C [4]; 0.3 µM glutamate + 100 µM glycine + CNS4, presence of Mg2+, without CNS4 -88.59± 0.30, p<0.001, n=7): -79.25±1.87 mv
voltage dependence of effect on current amplitude (GluN1/2C [4]; [8]): no voltage dependence effect
reversal potential (GluN1/2C [4]; agonist (100 µM glutamate + 100 µM glycine) + 40 µM MgCl2 + 100 µM CNS4, without CNS4 −81.75 ± 1.37, p < .01): −75.53 ± 0.59 mv
reversal potential (GluN1/2C [4]; agonist (100 µM glutamate + 100 µM glycine) + 100 µM CNS4, absence of Mg^2+, agonist alone −69.55 ± 1.51, p < .01): −63.64 ± 0.80 mv
